Changes are numbered by the printed parent chain.
Assays:
Nocturnin (NOCT) [1] = biological target: T1, Nocturnin (NOCT) (Homo sapiens, UniProt Q9UK39, N149A); assay: NADPH intrinsic fluorescence titration; format: binding
T1 sequence (Q9UK39 122-431 N149A): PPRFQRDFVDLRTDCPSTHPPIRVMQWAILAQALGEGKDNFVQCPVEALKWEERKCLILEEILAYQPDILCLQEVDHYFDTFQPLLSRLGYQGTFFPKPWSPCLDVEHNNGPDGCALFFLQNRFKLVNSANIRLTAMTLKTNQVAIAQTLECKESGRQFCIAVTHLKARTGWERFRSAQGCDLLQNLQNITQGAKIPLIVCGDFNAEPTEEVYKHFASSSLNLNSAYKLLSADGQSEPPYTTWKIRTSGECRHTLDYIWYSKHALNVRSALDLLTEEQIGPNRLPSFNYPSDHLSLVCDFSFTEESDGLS

Nocturnin (NOCT) [2] = biological target: T2, Nocturnin (NOCT) (Homo sapiens, UniProt Q9UK39, H286N); assay: NADPH intrinsic fluorescence titration; format: binding
T2 sequence (Q9UK39 122-431 H286N): T1 sequence (Q9UK39 122-431 N149A) with A28N, H165N

Nocturnin (NOCT) [3] = biological target: T3, Nocturnin (NOCT) (Homo sapiens, UniProt Q9UK39); assay: NADPH intrinsic fluorescence titration; format: binding
T3 sequence (Q9UK39 122-431): T1 sequence (Q9UK39 122-431 N149A) with A28N

Nocturnin (NOCT) [4] = biological target: T4, Nocturnin (NOCT) (Homo sapiens, UniProt Q9UK39, H414N); assay: NADPH intrinsic fluorescence titration; format: binding
T4 sequence (Q9UK39 122-431 H414N): T1 sequence (Q9UK39 122-431 N149A) with A28N, H293N

Nocturnin (NOCT) [5] = biological target: T3, Nocturnin (NOCT); assay: steady-state phosphatase kinetics of purified NOCT; format: biochemical

Row | Structure (SMILES) | Kd (Nocturnin (NOCT) [1]) [µM] | Kd (Nocturnin (NOCT) [2]) [µM] | Kd (Nocturnin (NOCT) [3]) [µM] | Kd (Nocturnin (NOCT) [4]) [µM] | steady-state phosphatase kinetics of purified NOCT (malachite green); value is k (Nocturnin (NOCT) [5])
1 | NC(=O)C1=CN([C@@H]2O[C@H](COP(=O)(O)OP(=O)(O)OC[C@H]3O[C@@H](n4cnc5c(N)ncnc54)[C@H](OP(=O)(O)O)[C@@H]3O)[C@@H](O)[C@H]2O)C=CC1 [NADPH] | 473 | 219 | 308 | 338 | –
2 | NC(=O)c1ccc[n+]([C@@H]2O[C@H](COP(=O)(O)OP(=O)(O)OC[C@H]3O[C@@H](n4cnc5c(N)ncnc54)[C@H](OP(=O)(O)O)[C@@H]3O)[C@@H](O)[C@H]2O)c1 [NADP^+] | – | – | – | – | 78
